# Results taken from PMC4118284 (Leukemia, 2012).
# “And” between values parts separate entries of the source, which are not always exact repeats. Identical values can stand only once. Like-named read-outs stand apart in the source and are kept apart here.
# Tests used:
# [1] = Plasma concentrations of midostaurin and metabolites
# [2] = tested on: FLT3; settings: cited from earlier work
# [3] = clinical; settings: human, plasma, intravenous, cycle 1, day 1; for AUC(0-t): AUC (0–24 h); for concentration at 24 h: C24 h
# [4] = Concomitant (days 1-7 and 15-21), 50 mg BID, Induction cycle 1, day 1
# [5] = Concomitant, 50 mg BID, First consolidation cycle, day 15.5
# [6] = Concomitant, 50 mg BID, Induction cycle 1, Day 1 (+ 2 h)
# [7] = Concomitant, 50 mg BID, Induction cycle 1, Day 1 (+ 4 h)
# [8] = Concomitant, 50 mg BID, Induction cycle 1, day 2
# [9] = Concomitant, 50 mg BID, Induction cycle 1, day 4
# [10] = Concomitant, 50 mg BID, Induction cycle 1, day 15 (+ 2 h)
# [11] = Concomitant, 50 mg BID, Induction cycle 1, day 15 (+ 4 h)
# [12] = Sequential (days 8-21), 50 mg BID, Induction cycle 1, day 8
# [13] = Sequential, 50 mg BID, First consolidation cycle, day 1.5
# [14] = Sequential, 50 mg BID, First consolidation cycle, day 15.5
# [15] = Sequential, 50 mg BID, First consolidation cycle, day 29.5
# [16] = Sequential, 50 mg BID, Induction cycle 1, day 8 (+ 2 h)
# [17] = Sequential, 50 mg BID, Induction cycle 1, day 8 (+ 4 h)
# [18] = Sequential, 50 mg BID, Induction cycle 1, day 9
# [19] = Sequential, 50 mg BID, Induction cycle 1, day 15
# [20] = Sequential, 50 mg BID, Induction cycle 1, day 22.5
# [21] = Sequential, 50 mg BID, Induction cycle 1, day 29.5
# [22] = Mean ± SD, Concomitant midostaurin n = 13
# [23] = Mean ± SD, Sequential midostaurin n = 13
# [24] = Median, Concomitant midostaurin n = 13
# [25] = Median, Sequential midostaurin n = 13
# [26] = Concomitant midostaurin n = 13, cycle 1, day 1
# [27] = Sequential midostaurin n = 13, cycle 1, day 1
structure (smiles),measurement,setting,value
CO[C@@H]1[C@H](N(C)C(=O)c2ccccc2)C[C@H]2O[C@]1(C)n1c3ccccc3c3c4c(c5c6ccccc6n2c5c31)C(=O)N[C@H]4O [CGP52421],"Plasma concentration, Max",[1]; [4],LLOQ
same,"Plasma concentration, Median",[1]; [4],LLOQ
same,"Plasma concentration, Min",[1]; [4],LLOQ
same,"Plasma concentration, Max",[1]; [5],810 ng/mL
same,"Plasma concentration, Min",[1]; [5],810 ng/mL
same,"Plasma concentration, individual values (n = 2; merged Median/Min/Max cell)","[1]; Concomitant, 50 mg BID, First consolidation cycle, day 29.5",809 ng/mL and 2990 ng/mL
same,"Plasma concentration, Max",[1]; [6],812 ng/mL
same,"Plasma concentration, Median",[1]; [6],170 ng/mL
same,"Plasma concentration, Min",[1]; [6],52.9 ng/mL
same,"Plasma concentration, Max",[1]; [7],209 ng/mL
same,"Plasma concentration, Median",[1]; [7],137 ng/mL
same,"Plasma concentration, Min",[1]; [7],115 ng/mL
same,"Plasma concentration, Max",[1]; [8],460 ng/mL
same,"Plasma concentration, Median",[1]; [8],361 ng/mL
same,"Plasma concentration, Min",[1]; [8],228 ng/mL
same,"Plasma concentration, Max",[1]; [9],1090 ng/mL
same,"Plasma concentration, Median",[1]; [9],832 ng/mL
same,"Plasma concentration, Min",[1]; [9],570 ng/mL
same,"Plasma concentration, Max",[1]; [10],1920 ng/mL
same,"Plasma concentration, Median",[1]; [10],1170 ng/mL
same,"Plasma concentration, Min",[1]; [10],814 ng/mL
same,"Plasma concentration, Max",[1]; [11],1860 ng/mL
same,"Plasma concentration, Median",[1]; [11],1465 ng/mL
same,"Plasma concentration, Min",[1]; [11],893 ng/mL
same,"Plasma concentration, Max",[1]; [12],LLOQ
same,"Plasma concentration, Median",[1]; [12],LLOQ
same,"Plasma concentration, Min",[1]; [12],LLOQ
same,"Plasma concentration, Max",[1]; [13],3110 ng/mL
same,"Plasma concentration, Median",[1]; [13],1740 ng/mL
same,"Plasma concentration, Min",[1]; [13],835 ng/mL
same,"Plasma concentration, Max",[1]; [14],4210 ng/mL
same,"Plasma concentration, Median",[1]; [14],2685 ng/mL
same,"Plasma concentration, Min",[1]; [14],1490 ng/mL
same,"Plasma concentration, Max",[1]; [15],5320 ng/mL
same,"Plasma concentration, Median",[1]; [15],2230 ng/mL
same,"Plasma concentration, Min",[1]; [15],1440 ng/mL
same,"Plasma concentration, Max",[1]; [16],194 ng/mL
same,"Plasma concentration, Median",[1]; [16],70.8 ng/mL
same,"Plasma concentration, Min",[1]; [16],35.9 ng/mL
same,"Plasma concentration, Max",[1]; [17],207 ng/mL
same,"Plasma concentration, Median",[1]; [17],113 ng/mL
same,"Plasma concentration, Min",[1]; [17],58.2 ng/mL
same,"Plasma concentration, Max",[1]; [18],414 ng/mL
same,"Plasma concentration, Median",[1]; [18],293 ng/mL
same,"Plasma concentration, Min",[1]; [18],145 ng/mL
same,"Plasma concentration, Max",[1]; [19],1670 ng/mL
same,"Plasma concentration, Median",[1]; [19],1460 ng/mL
same,"Plasma concentration, Min",[1]; [19],903 ng/mL
same,"Plasma concentration, Max",[1]; [20],3540 ng/mL
same,"Plasma concentration, Median",[1]; [20],2800 ng/mL
same,"Plasma concentration, Min",[1]; [20],1630 ng/mL
same,"Plasma concentration, Max",[1]; [21],3330 ng/mL
same,"Plasma concentration, Median",[1]; [21],1955 ng/mL
same,"Plasma concentration, Min",[1]; [21],1350 ng/mL
same,Half-life (qualitative),"[1]; midostaurin 50 mg twice daily, stable levels between dosing treatment phases",long half-life
same,Inhibition of FLT3 in vitro,[2],capable of inhibiting FLT3 in vitro
CN(C(=O)c1ccccc1)[C@@H]1C[C@H]2O[C@@](C)([C@@H]1O)n1c3ccccc3c3c4c(c5c6ccccc6n2c5c31)C(=O)NC4 [CGP62221],Inhibition of FLT3 in vitro,[2],capable of inhibiting FLT3 in vitro
Nc1ccn([C@@H]2O[C@H](CO)[C@@H](O)[C@@H]2O)c(=O)n1 [cytarabine],Pharmacokinetic interaction with midostaurin,data not shown,No interaction
COc1cccc2c1C(=O)c1c(O)c3c(c(O)c1C2=O)C[C@@](O)(C(C)=O)C[C@@H]3O[C@H]1C[C@H](N)[C@H](O)[C@H](C)O1 [daunorubicin],AUC(0-t),[3]; [22],373 ng·h/mL
same,AUC(0-t),[3]; [23],267 ng·h/mL
same,AUC(0-t),[3]; [24],189 ng·h/mL
same,AUC(0-t),[3]; [25],159 ng·h/mL
same,concentration at 24 h,[3]; [22],17.4 ng/mL
same,concentration at 24 h,[3]; [24],17.4 ng/mL
same,Cmax,[3]; [22],98 ng/mL
same,Cmax,[3]; [23],229 ng/mL
same,Cmax,[3]; [24],89 ng/mL
same,Cmax,[3]; [25],76 ng/mL
same,Tmax,[3]; [22],30 min
same,Tmax,[3]; [23],36 min
same,Tmax,[3]; [24],30 min
same,Tmax,[3]; [25],30 min
same,"CL, Mean ± SD",[26],269 ± 130 L/h/m^2
same,"CL, Median",[26],283 L/h/m^2
same,"Vz, Mean ± SD",[26],717 ± 266 L/m^2
same,"Vz, Median",[26],694 L/m^2
same,"C24 h, Mean ± SD",[27],0 ± 0 ng/mL
same,"CL, Mean ± SD",[27],330 ± 226 L/h/m^2
same,"CL, Median",[27],270 L/h/m^2
same,"Vz, Mean ± SD",[27],946 ± 696 L/m^2
same,"Vz, Median",[27],775 L/m^2
same,"C24 h, Median","Sequential midostaurin n = 13, cycle 1, day 1, LLOQ is 5 ng/mL",LLOQ
same,Effect of midostaurin on clearance,midostaurin 50 mg twice daily,does not seem to be affected
same,"C24 h, Concomitant/sequential midostaurin","ratio, cycle 1, day 1",17.4/LLOQ
